Assays:
PtoMBD [1] = biological target: T1, PtoMBD (Picrophilus oshimae, UniProt Q6L1T9, D309T); assay: radio-TLC activity assay; type: biochemical; settings: labelled compound; 1 μM GGPP, 5 mM MgCl2, sodium acetate pH 5.5, 60 °C
T1 construct: gene PTO0478

PtoMBD [2] = biological target: T2, PtoMBD (Picrophilus oshimae, UniProt Q6L1T9, R218A/R220A); assay: radio-TLC activity assay; type: biochemical; settings: labelled compound; 1 μM GGPP, 5 mM MgCl2, sodium acetate pH 5.5, 60 °C
T2 construct: gene PTO0478

PtoMBD [3] = biological target: T3, PtoMBD (Picrophilus oshimae, UniProt Q6L1T9, D309N); assay: radio-TLC activity assay; type: biochemical; settings: labelled compound; 1 μM GGPP, 5 mM MgCl2, sodium acetate pH 5.5, 60 °C
T3 construct: gene PTO0478

PtoMBD [4] = biological target: T4, PtoMBD (Picrophilus oshimae, UniProt Q6L1T9); assay: X-ray crystal structure, […] Å; type: binding; settings: endogenous E. coli ligand, identity assumed from density (oleic acid fitted), low occupancy, subunit A only; cavity overlapping ATP site of DMD
T4 construct: gene PTO0478
T4 sequence (Q6L1T9 1-349): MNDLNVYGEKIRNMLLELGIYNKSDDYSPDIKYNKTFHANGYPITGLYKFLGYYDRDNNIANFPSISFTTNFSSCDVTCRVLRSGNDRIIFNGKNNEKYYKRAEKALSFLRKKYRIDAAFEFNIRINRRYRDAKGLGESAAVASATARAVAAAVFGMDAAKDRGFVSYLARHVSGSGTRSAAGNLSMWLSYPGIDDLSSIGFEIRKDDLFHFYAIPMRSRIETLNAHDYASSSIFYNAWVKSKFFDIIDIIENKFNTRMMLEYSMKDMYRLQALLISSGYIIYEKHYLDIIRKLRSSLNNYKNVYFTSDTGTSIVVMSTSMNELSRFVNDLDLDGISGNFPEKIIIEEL

[5] = biological target: the molecule itself; assay: SEC; HiLoad 16/600 Superdex 200 prep grade, 20 mM sodium phosphate pH 7.4, 500 mM NaCl, 0.6 ml/min; calibrated with gel filtration markers

T1 sequence (Q6L1T9 whole entry D309T): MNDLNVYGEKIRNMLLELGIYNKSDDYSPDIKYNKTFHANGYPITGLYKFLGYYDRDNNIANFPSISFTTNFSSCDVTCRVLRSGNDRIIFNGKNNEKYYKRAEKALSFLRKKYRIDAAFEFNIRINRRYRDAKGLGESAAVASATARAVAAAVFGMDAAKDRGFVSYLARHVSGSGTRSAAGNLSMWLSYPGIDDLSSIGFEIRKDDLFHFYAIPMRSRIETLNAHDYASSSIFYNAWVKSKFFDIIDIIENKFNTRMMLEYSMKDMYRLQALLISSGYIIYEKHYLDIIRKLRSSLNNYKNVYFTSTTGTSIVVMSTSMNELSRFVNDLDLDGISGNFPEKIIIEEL
T2 sequence (Q6L1T9 whole entry R218A/R220A): as the sequence (Q6L1T9 whole entry D309T) above, with R218A, R220A, T309D counted along it
T3 sequence (Q6L1T9 whole entry D309N): as the sequence (Q6L1T9 whole entry D309T) above, with T309N counted along it

## C[C@@](CCOP(=O)(O)O)(CC(=O)O)OP(=O)(O)O [MVA3,5BP]
PtoMBD [1]
  MBD activity: mutants D309T and D309N leads to the complete loss of MBD activity
PtoMBD [2]
  MBD activity: the R218A/R220A double mutant was as active as the WT
PtoMBD [3]
  MBD activity: mutants D309T and D309N leads to the complete loss of MBD activity

## CCCCCCCC/C=C\CCCCCCCC(=O)O [OLA]
PtoMBD [4]
  X-ray crystal structure, 2.2 Å: Oleic acid (OLA) fitted well in the electron density

B1: Picrophilus torridus mevalonate 3,5-bisphosphate decarboxylase (enzyme)
chain: T4 sequence (Q6L1T9 1-349)
notes: Mevalonate 3,5-bisphosphate decarboxylase of Picrophilus torridus, gene pto0478; calculated mass of the tagged protein 42,186 Da; also called PtoMBD; MBD; source: E. coli BL21(DE3), pET28a(+), purified (heat treatment, Ni-NTA, HP-Q for crystallization; heat treatment and Ni-NTA only for size-exclusion chromatography); not shown: polyhistidine, N-terminal, kept
[5]
  stoichiometry N: 2

— article PMC9254496, “Crystal structure of mevalonate 3,5-bisphosphate decarboxylase reveals insight into the evolution of decarboxylases in the mevalonate metabolic pathways” (The Journal of Biological Chemistry, 2022)
